From ChEMBL document CHEMBL2440061, “Synthesis and pharmacological evaluation of carboxycoumarins as a new antitumor treatment targeting lactate transport in cancer cells” (Bioorg Med Chem, 2013)
≈ marks a conversion by molar mass, not a printed value. Calls of active or inactive are those of the source. No cut-off for these calls is given here.

Assays:
[1] = target: T1, Monocarboxylate transporter 4 (Homo sapiens, UniProt O15427); experiment: Inhibition of MCT4-mediated [14C]-lactate uptake in human SiHa cells in lactate-containing medium assessed as remaining lactate concentration in culture medium after 24 hrs by liquid scintillation counting; type: cell-based
T1 sequence (O15427 whole entry): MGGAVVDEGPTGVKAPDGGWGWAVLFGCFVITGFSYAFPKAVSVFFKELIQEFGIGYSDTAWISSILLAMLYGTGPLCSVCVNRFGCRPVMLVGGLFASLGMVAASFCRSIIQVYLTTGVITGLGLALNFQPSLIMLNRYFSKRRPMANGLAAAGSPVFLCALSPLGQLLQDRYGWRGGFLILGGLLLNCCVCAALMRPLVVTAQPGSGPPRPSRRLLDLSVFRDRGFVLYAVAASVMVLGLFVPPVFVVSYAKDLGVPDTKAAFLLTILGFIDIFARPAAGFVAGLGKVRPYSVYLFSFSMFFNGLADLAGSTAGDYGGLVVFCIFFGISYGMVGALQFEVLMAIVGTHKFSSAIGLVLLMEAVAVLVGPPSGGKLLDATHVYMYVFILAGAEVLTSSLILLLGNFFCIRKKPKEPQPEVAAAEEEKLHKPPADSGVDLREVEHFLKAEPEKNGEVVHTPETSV

SiHa [2] = experiment: Cytotoxicity against human SiHa cells in lactate-containing medium after 72 hrs by MTT assay; type: functional, cell-based
SiHa [3] = experiment: Cytotoxicity against human SiHa cells in glucose-containing medium after 72 hrs by MTT assay; type: functional, cell-based
SiHa [4] = experiment: Induction of apoptosis in human SiHa cells in lactate-containing medium assessed as caspase-3 cleavage at 10 uM after 48 hrs by Western blot analysis; type: functional, cell-based
[5] = target: T2, Monocarboxylate transporter 4 (Homo sapiens) (UniProt O15427); experiment: Ratio of alpha-cyano-4-hydroxycinnamate IC50 to compound IC50 for MCT4-mediated [14C]-lactate uptake in human SiHa cells in lactate-containing medium assessed as remaining lactate concentration in culture medium after 24 hrs by liquid scintillation counting; type: cell-based
T2 sequence (whole entry): T1 sequence (O15427 whole entry)

SiHa [6] = experiment: Cytotoxicity against human SiHa cells in glucose-containing medium after 72 hrs by MTT assay absence of pyruvate; type: functional, cell-based
[7] = Aqueous solubility of the compound in PBS buffer at pH 7.4; type: physicochemical
Mus musculus [8] = experiment: Toxicity in C57Bl6/J mouse assessed as mortality at 3 mg/kg, ip; type: organism-based; set-up: dose 3 mg/kg, route intraperitoneal; conditions: in vivo
[9] = Tmax in mouse at 3 mg/kg, ip; type: ADME, organism-based; set-up: dose 3 mg/kg, route intraperitoneal; conditions: in vivo
[10] = Half life in mouse at 3 mg/kg, ip; type: ADME, organism-based; set-up: dose 3 mg/kg, route intraperitoneal; conditions: in vivo
[11] = target: T1, Monocarboxylate transporter 4; conditions: siha
Description: Inhibition of MCT4-mediated [14C]-lactate uptake in human SiHa cells in lactate-containing medium assessed as remaining lactate concentration in culture medium after 12 mins by liquid scintillation counting

[12] = Chemical stability of the compound in simulated gastric fluid assessed as compound remaining after 1 hr; type: physicochemical; conditions: read-out: Stability
[13] = Chemical stability of the compound in simulated intestinal fluid assessed as compound remaining after 4 hrs; type: physicochemical; conditions: read-out: Stability
[14] = AUC (infinity) in mouse at 3 mg/kg, ip; type: ADME, organism-based; set-up: time infinity, dose 3 mg/kg, route intraperitoneal; conditions: plasma
[15] = Half life in human hepatocytes; type: ADME, cell-based, Hepatocyte
[16] = Cmax in mouse at 3 mg/kg, ip; type: ADME, organism-based; set-up: dose 3 mg/kg, route intraperitoneal; conditions: in vivo
Mus musculus [17] = experiment: Toxicity in C57Bl6/J mouse assessed as induction of anticoagulant at 3 mg/kg, ip by prothrombin time test; type: organism-based; set-up: dose 3 mg/kg, route intraperitoneal; conditions: in vivo
[18] = Half life in mouse liver microsomes; type: ADME, Microsome
[19] = Half life in human liver microsomes; type: ADME, Microsome
SiHa [20] = experiment: Cytotoxicity against human SiHa cells in glucose-containing medium at 10 uM under normoxia condition after 72 hrs by MTT assay; type: functional, cell-based
SiHa [21] = experiment: Cytotoxicity against human SiHa cells in glucose-containing medium after 72 hrs by MTT assay presence of pyruvate; type: functional, cell-based
SiHa [22] = experiment: Cytotoxicity against human SiHa cells in glucose-containing medium at 10 uM under hypoxia condition after 72 hrs by MTT assay; type: functional, cell-based
[23] = Metabolic stability in mouse plasma assessed as compound remaining after 1 hr; type: ADME, cell-free; conditions: read-out: Stability
[24] = Metabolic stability in human plasma assessed as compound remaining after 1 hr; type: ADME, cell-free; conditions: read-out: Stability
Mus musculus [25] = experiment: Toxicity in C57Bl6/J mouse assessed as mortality at 1.5 mg/kg, ip; type: organism-based; set-up: dose 1.5 mg/kg, route intraperitoneal; conditions: in vivo
Mus musculus [26] = experiment: Toxicity in C57Bl6/J mouse assessed as induction of hemorrhage at 1.5 mg/kg, ip; type: organism-based; set-up: dose 1.5 mg/kg, route intraperitoneal; conditions: in vivo

## O=C(O)c1cc2ccc(OCCc3ccccc3)cc2oc1=O
[1]
  IC50: 2400 nM
SiHa [2]
  EC50: 5.6 µM
SiHa [3]
  Activity: inactive

## O=C(O)c1cc2ccc(OC3Cc4ccccc4C3)cc2oc1=O
SiHa [2]
  Activity: inactive

## O=C(O)c1cc2ccc(OCc3ccccc3)cc2oc1=O
[1]
  IC50: 1900 nM
SiHa [2]
  EC50: 9.1 µM
SiHa [3]
  Activity: inactive

## O=C(O)c1cc2ccc(OCc3cccc(F)c3)cc2oc1=O
SiHa [2]
  Activity: inactive

## O=C(O)c1cc2ccc(OCc3cc(C(F)(F)F)cc(C(F)(F)F)c3)cc2oc1=O
SiHa [2]
  Activity: inactive

## O=C(O)c1cc2ccc(OCn3nnc4ccccc43)cc2oc1=O
SiHa [2]
  Activity: inactive

## Cc1c(C(=O)O)c(=O)oc2cc(OCc3ccccc3)ccc12
[1]
  IC50: > 30000 nM
SiHa [2]
  EC50: > 30 µM
SiHa [3]
  Activity: inactive

## O=C(O)c1cc2ccc(OCc3ccccc3)cc2n(Cc2ccccc2)c1=O
[1]
  IC50: > 30000 nM
SiHa [2]
  EC50: > 30 µM
SiHa [3]
  Activity: inactive

## CC(C)=CCC/C(C)=C/COc1ccc2cc(C(=O)O)c(=O)oc2c1
SiHa [2]
  Activity: inactive

## O=C(O)c1cc2ccc(N3CCOCC3)cc2oc1=O
[1]
  IC50: 7900 nM
SiHa [2]
  EC50: 17.5 µM
SiHa [3]
  Activity: inactive

## O=C(O)c1cc2ccc(OCc3ccccc3)cc2[nH]c1=O
[1]
  IC50: > 30000 nM
SiHa [2]
  EC50: > 30 µM
SiHa [3]
  Activity: inactive

## COc1ccc2cc(C(=O)O)c(=O)oc2c1
[1]
  IC50: 2300 nM
SiHa [2]
  EC50: 9.8 µM
SiHa [3]
  Activity: inactive

## O=C(O)c1cc2ccc(OCc3ccc(F)cc3)cc2oc1=O
[1]
  IC50: 1250 nM
SiHa [2]
  EC50: 3.9 µM
SiHa [3]
  Activity: inactive

## COc1ccc2c(C)c(C(=O)O)c(=O)oc2c1
[1]
  IC50: > 30000 nM
SiHa [2]
  EC50: > 30 µM
SiHa [3]
  Activity: inactive

## CN(Cc1ccccc1)c1ccc2cc(C(=O)O)c(=O)oc2c1
[1]
  IC50: 59 nM
SiHa [4]
  Activity: Active
[5]
  Ratio IC50: 3
SiHa [6]
  Activity: inactive
[7]
  solubility: 58 µM (≈ 17.9 µg/mL)
Mus musculus [8]
  Activity: Non-toxic
[9]
  Tmax: 10 min
[10]
  half-life: 270 min
[11]
  IC50: 0.01 µM
[12]
  remaining at 1 h: 105%
SiHa [2]
  EC50: 0.22 µM
[13]
  remaining at 4 h: 91%
[14]
  AUC(0-inf): 935 ng·h/mL
[15]
  half-life: > 120 min
[16]
  Cmax: 1250 ng/mL
Mus musculus [17]
  Activity: Non-toxic
[18]
  half-life: > 60 min
[19]
  half-life: > 60 min
SiHa [20]
  Activity: inactive
SiHa [21]
  Activity: inactive
SiHa [3]
  Activity: inactive
SiHa [22]
  Activity: inactive
[23]
  remaining at 1 h: 103%
[24]
  remaining at 1 h: 44%

## O=C(O)c1cc2cc3c4c(c2oc1=O)CCCN4CCC3
[1]
  IC50: 730 nM
[5]
  Ratio IC50: 50
SiHa [2]
  EC50: 1.2 µM
SiHa [3]
  Activity: inactive

## CN(C)c1ccc2cc(C(=O)O)c(=O)oc2c1
[1]
  IC50: 1400 nM
SiHa [2]
  EC50: 2.9 µM
SiHa [3]
  Activity: inactive

## CCn1c(=O)c(C(=O)O)cc2ccc(OCc3ccccc3)cc21
[1]
  IC50: > 30000 nM
SiHa [2]
  EC50: > 30 µM
SiHa [3]
  Activity: inactive

## Cc1c(C(=O)O)c(=O)oc2cc(O)ccc12
[1]
  IC50: > 30000 nM
SiHa [2]
  EC50: > 30 µM
SiHa [3]
  Activity: inactive

## Cn1c(=O)c(C(=O)O)cc2ccc(OCc3ccccc3)cc21
[1]
  IC50: > 30000 nM
SiHa [2]
  EC50: > 30 µM
SiHa [3]
  Activity: inactive

## CC(=O)CC(c1ccccc1)c1c(O)c2ccccc2oc1=O (stereo unspecified) [WARFARIN]
Mus musculus [25]
  Activity: Toxic
Mus musculus [26]
  Activity: Toxic

## O=C(O)c1cc2ccc(N3CCCC3)cc2oc1=O
[1]
  IC50: > 30000 nM
SiHa [2]
  EC50: 14.3 µM
SiHa [3]
  Activity: inactive

## N#C/C(=C\c1ccc(O)cc1)C(=O)O [alpha-CYANO-4-HYDROXYCINNAMIC ACID]
[1]
  IC50: 43500 nM
[11]
  IC50: 10.7 µM
SiHa [2]
  EC50: 10.7 µM
SiHa [3]
  Activity: inactive
